# Entries after “also recorded” stand apart in the source; their conditions may differ. Where a name gives a salt, the structure may show the parent alone. Read-outs that look alike come from different tables or passages of the source.
# Key:
# PD-L1 [1] = molecular target: T1, PD-L1 (Homo sapiens, UniProt Q9NZQ7); assay: NMR binding assay (1H and 1H-15N HMQC); settings: molar ratio 1:1
# T1 construct: The PD-L1 protein (18–134) was expressed in the Escherichia coli BL21 (DE3); made in house; host or cells: Escherichia coli BL21 (DE3)
# T1 sequence (Q9NZQ7 18-134): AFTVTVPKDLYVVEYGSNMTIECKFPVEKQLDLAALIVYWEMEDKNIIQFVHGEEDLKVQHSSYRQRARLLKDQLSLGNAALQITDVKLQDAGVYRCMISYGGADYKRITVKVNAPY
# Source text: To investigate if our synthesized analogs are capable of disrupting PD-1/PD-L1 binding, we performed our previously described nuclear magnetic resonance (NMR) assay.[16] […] The PD-L1 dimerization causes peaks of the ^1H aliphatic part PD-L1 spectrum to flatten (peak at −0.4 ppm) or disappear in the case of peaks from ^1H–^15N HMQC spectrum. Dimerization of PD-L1, in turn, prevents its binding to the PD-1.
# For NMR measurements, the buffer was exchanged by gel filtration to PBS pH 7.4. 10% (v/v) of D2O was added to the samples to provide the lock signal. All spectra were recorded at 300 K using a Bruker Avance III 600 MHz spectrometer equipped with the nitrogen cryo-probe head.
# Determination of binding of compounds to PD-L1 was carried out with the ^1H NMR. […] The molecular weight of each complex was estimated from relaxation time analysis, which can only be explained by the compound-induced PD-L1 dimerization. No significant changes were observed upon the addition of the PD-1 with the tested compounds.
# PD-1/PD-L1 complex = molecular target: T2, PD-1/PD-L1 complex (Homo sapiens, UniProt Q9NZQ7); assay: HTRF PD-1/PD-L1 assay (Cisbio Human PD1/PD-L1 biochemical binding assay); settings: disruption of the PD-1/PD-L1 complex; two independent dilution series
# T2 construct: purchased Cisbio Bioassays
# T2 sequence (Q9NZQ7 19-238 limits assumed, one chain of several): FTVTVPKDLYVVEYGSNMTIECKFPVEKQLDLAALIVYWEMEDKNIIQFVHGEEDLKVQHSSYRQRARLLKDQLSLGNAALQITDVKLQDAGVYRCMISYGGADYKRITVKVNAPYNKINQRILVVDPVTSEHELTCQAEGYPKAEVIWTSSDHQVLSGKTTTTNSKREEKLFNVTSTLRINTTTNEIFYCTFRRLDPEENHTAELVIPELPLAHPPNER
# Method: Presence of inhibitors (small molecules, proteins, and so forth) that disrupt the binding decreases the resulting signal allowing the assessment of the inhibitory activity of tested inhibitors via IC50 (the half maximal inhibitory concentration).
# The HTRF assay was performed using the certified Cis-Bio assay kit at 20 μL final volume using their standard protocol as described by Musielak et al.[34] Measurements were performed on individual dilution series to determine the half maximal inhibitory concentration (IC50) of tested compounds. After mixing all components according to the Cis-Bio protocol, the plate was incubated for 2 h at RT. […] For the compounds with IC50 values that were too high due to, e.g., solubility issues, a “dissociation value” at the concentration of 50 μM is presented for the sake of comparability to other inhibitors.
# PD-L1 [2] = molecular target: T1, PD-L1; assay: Microscale thermophoresis (MST) affinity assay; format: binding
# Method: The PD-L1 protein (18–134) was expressed in the Escherichia coli BL21 (DE3) and purified as described previously (Zak et al., 2016).[8] Protein expression was induced with 1 mM isopropyl β-D-1-thiogalactopyranosid (IPTG) at OD600 of 0.8 and the cells were cultured overnight at 37 °C. Afterward protein was refolded by drop-wise dilution into solution containing 0.1 M Tris pH 8.0, 1 M L-arginine hydrochloride, 0.25 mM oxidized glutathione, and 0.25 mM reduced glutathione. After refolding, protein was dialyzed 3 times against buffer containing 10 mM Tris pH 8.0 and 20 mM NaCl. Finally, PD-L1 was purified by SEC (size-exclusion chromatography) on HiLoad 26/600 Superdex 75 column (GE Healthcare) equilibrated with PBS pH 7.4.
# PD-L1 was expressed as for NMR experiment. It was diluted to 10 μM and labelled with Protein Labeling Kit RED-NHS 2nd Generation from Nanotemper according to the manufacturer’s guidelines. The degree of labelling for PD-L1 was 0.74, which is with agreement with the protocol. Labelled PD-L1 at 100 nM concentration was then mixed with independent series of 4a and 9a compound dilution series (n = 4) and incubated for 30 min at RT. Next, samples were transferred to dedicated 384-well plate and measured on Diantus equipped with pico detector using auto-excitation and 5 s pulse (Nanotemper) for the affinity measurements. The results were exported, averaged, and fitted in Mathematica 12 using following equations: [drawing 1] where: FB—fraction bound, [A]—concentration of unlabeled titrated partner, [B]—concentration of fluorescent labeled partner that is fixed, [AB]—concentration of bound complex of A and B, Kd—equilibrium dissociation constant.
# PD-1/PD-L1 = molecular target: T3, PD-1/PD-L1 (Homo sapiens, UniProt Q9NZQ7); assay: Promega PD-1/PD-L1 immune checkpoint blockade assay (Jurkat reporter T cells + aAPCs); format: cell-based; settings: Jurkat reporter T cells cocultured with aAPCs; an estimation because of cytotoxicity at higher concentrations
# T3 construct: host or cells: CHO-K1 aAPCs (PD-L1) and Jurkat effector cells (PD-1)
# T3 sequence (Q9NZQ7 19-290): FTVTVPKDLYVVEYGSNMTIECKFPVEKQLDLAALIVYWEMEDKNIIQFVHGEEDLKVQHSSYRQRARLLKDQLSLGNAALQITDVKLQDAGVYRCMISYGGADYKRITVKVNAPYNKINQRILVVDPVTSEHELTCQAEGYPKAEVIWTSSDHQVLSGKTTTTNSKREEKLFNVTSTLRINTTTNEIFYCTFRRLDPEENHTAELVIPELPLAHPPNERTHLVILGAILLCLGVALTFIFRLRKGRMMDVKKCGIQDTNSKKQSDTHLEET
# Method: Additionally, aAPCs and ECs were propagated in a constant presence of hygromycin B (50 μg/mL) and G418 (250 μg/mL) to provide a stable expression of the introduced genetic constructs.
# The aAPCs were seeded in white flat bottom 96-well plates at the density of 10 000 cells/well in the culture medium 24 h before the assay and grown overnight in a 5% CO2 37 °C incubator. On the day of the experiment, serial dilutions of tested compounds were prepared first in DMSO and then formulated in RPMI 1640-containing 1% FBS to keep the constant DMSO concentration of 0.1% (v/v). As a negative control, DMSO was used in assay buffer at the concentration of 0.1% (v/v). As a positive control, a serial dilution of durvalumab (an anti-PD-L1 antibody) in assay buffer was used. Meanwhile, the medium of the aAPCs cells was removed, and the compounds’ dilutions were added to the plate (40 μL/well). […] The cell suspension was distributed over the inner 60 wells of the assay plate (20 000 cells/well, 40 μL). The plates were incubated for 6 h in a 5% CO2 incubator at 37 °C. Once the assay time was over, the plate was taken out of the incubator to equilibrate to room temperature. Before measurements, a 75 μL per well of Bio-Glo luciferase substrate was added to the inner 60 wells of the plate. […] The measurement was done on a Spark microplate reader (Tecan), using the standard settings for luminescence reading.
# [3] = Experimental lipophilicity of 18F tracers; format: physicochemical; settings: for logP / lipophilicity (in words): 18F tracer; for logP / logD: triplicate; for logP: read-out: experimental log P; for logD: pH 7.4, 18F tracer, read-out: experimental log D7.4
# [4] = In vitro stability in formulation solution; format: physicochemical; settings: for stability in formulation solution (4h): supplementary csv, unit not given; for stability in formulation solution after 4 h: radiochemical purity by TLC, triplicate
# Method: (§1) In vitro stability of [^18F]4a and [^18F]9a was evaluated in Tween-80 or PBS (original diluent) and serum. After purification, samples of tracers were mixed with equal volumes of the formulated tracer and solution in which stability was evaluated (100 μL tracer solution with 100 μL Tween-80/PBS) and measured every 30 min for a 4 h period. The radiochemical purity (RCP) of labeled products was measured using thin-layer chromatography (TLC) (silica TLC plates on aluminum, MerckMilipore, USA). The TLCs were developed with appropriate MeOH/DCM eluent system; 10% MeOH/DCM + NH3 for [^18F]4a and 10% MeOH/DCM for [^18F]9a. The distribution of the radioactivity among the TLC plate was measured on GE Amersham Typhoon Scanner using phosphorus plates and ImageQuant TL 1D software for data processing (both GE Healthcare Life Science, USA). The experiment was performed in triplicate.
# [5] = In vitro stability in human serum; format: in vitro ADME; settings: for stability in serum (4h): supplementary csv, unit not given; for stability in serum after 4 h: radiochemical purity by TLC, triplicate
# Method: as §1
# PD-L1 [6] = molecular target: T1, PD-L1; design: method as in PMID 17985865; settings: by means of NMR, HTRF, and cellular assays; cited from earlier work
# murine PD-L1 = tested on: murine PD-L1; design: method as in PMID 17985865; settings: by means of NMR, HTRF, and cellular assays; cited from earlier work
# [7] = tested on: H358 (lung adenocarcinoma) PD-L1^+/– tumor tissue sections; assay: Autoradiography with H358 PD-L1+/- tumor tissue sections; format: binding, human; settings: PD-L1+ vs counterpart H358 tumor sections
# Method: (§2) Formalin-fixed paraffin-embedded xenograft tumors (ES2 PD-L1^+/– and H358 PD-L1^+/–) were cut into 4 μm slices and placed on the glass slides. Before each immunohistochemistry and autoradiography experiment, tissue slides were deparaffinized by oven incubation (min 1 h at 60 °C) and xylene washes, then rehydrated through graded alcohol and distilled water. Additionally, heat-induced antigen retrieval with 10 mM citrate buffer pH = 6.0 was performed (15 min 400 W). Snap-frozen human tonsil tissue was a gift from the Pathology Department (UMCG). Before each experiment, they were incubated in cold acetone for 10 min.
# (§3) For autoradiography, antigen retrieval and acetone wash were followed by 30 min of incubation with a freshly formulated tracer at a concentration of 0.2 MBq/mL. After washing twice with cold PBS and once with water, slides were left to dry and exposed to phosphorus plates. The image was recorded on GE Amersham Typhoon Biomolecular Imager and analyzed with ImageQuant TL 1D software (both GE Healthcare Life Science, USA).
# [8] = tested on: ES2 (ovarian carcinoma) PD-L1^+/– tumor tissue sections; assay: Autoradiography with ES2 PD-L1+/- tumor tissue sections; format: binding, human
# Method: as §2, §3
# PD-L1 [9] = settings: PD-L1 nanobody, ca. 15 kDa; cited from earlier work
# [10] = MST, labelled PD-L1 100 nM, n = 4, read-out: kD to hPD-L1
# [11] = supplementary csv, unit inferred, read-out: MST Kd
molecule,measurement,setting,value
"Cc1c(COc2cc(OCc3cccc(C#N)c3)c(CN3CC(O)C[C@@H]3C(=O)O)cc2Cl)cccc1-c1ccc2c(c1)OCCO2 (stereo in doubt) [9b, (2R,4S)-1-(5-Chloro-2-((3-cyanobenzyl)oxy)-4-((3-(2,3-dihydrobenzo[b][1,4]dioxin-6-yl)-2-methylbenzyl)oxy)benzyl)-4-hydroxypyrrolidine-2-carboxylic Acid, reference compound]",effect on PD-L1 in 1H NMR and 1H-15N HMQC spectra,PD-L1 [1],induces dimerization of PD-L1
"N#Cc1c(-c2ccc(F)cc2)csc1OCc1ccc(CN)cc1 [4a, 2-((4-(Aminomethyl)benzyl)oxy)-4-(4-fluorophenyl)thiophene-3-carbonitrile Hydrochloride]",IC50,PD-1/PD-L1 complex,4.97 nM
same,Kd,PD-L1 [2]; [10],~27 nM
same,Kd,PD-L1 [2]; [11],26.9 nM
same,EC50,PD-1/PD-L1,2700 nM
same,effect on PD-L1 in 1H NMR and 1H-15N HMQC spectra,PD-L1 [1],induces dimerization of PD-L1
same,logP,[3],3.6
same,logD,[3],3.9
same,stability in formulation solution (4h),[4],97.5
same,stability in serum (4h),[5],93.9
"Cc1c(COc2cc(OCc3cccc(C#N)c3)c(CN3C[C@@H](F)C[C@@H]3C(=O)O)cc2Cl)cccc1-c1ccc2c(c1)OCCO2 [9a, (2R,4S)-1-(5-Chloro-2-((3-cyanobenzyl)oxy)-4-((3-(2,3-dihydrobenzo[b][1,4]dioxin-6-yl)-2-methylbenzyl)oxy)benzyl)-4-fluoropyrrolidine-2-carboxylic Acid]",IC50,PD-1/PD-L1 complex,2.01 nM
same,Kd,PD-L1 [2]; [10],~8 nM
same,Kd,PD-L1 [2]; [11],8.36 nM
same,EC50,PD-1/PD-L1,880 nM
same,logP,[3],5.2
same,logD,[3],6.5
same,stability in formulation solution (4h),[4],97.3
same,stability in serum (4h),[5],88.7
C[C@@H](O)[C@H](NC(=O)N[C@@H](CC(N)=O)c1nc([C@@H](N)CO)no1)C(=O)O [CA-170],direct binding to human PD-L1,PD-L1 [6],not a direct binder
same,direct binding to murine PD-L1,murine PD-L1,not a direct binder
N#Cc1c(-c2ccc([18F])cc2)csc1OCc1ccc(CN)cc1 [[^18F]4a],lipophilicity (in words),[3],moderate lipophilicity
same,logP,[3],3.6 ± 0.4
same,logD,[3],3.9 ± 0.9
same,stability in formulation solution after 4 h,[4],97.5 ± 0.5%
same,stability in serum after 4 h,[5],93.9 ± 0.5%
same,"stability in human serum, minimal value",[5],93%
same,higher uptake in PD-L1+ H358 tumors,[7],40–55%
same,background uptake,[8]; compared with [^18F]9a,lower background uptake than [^18F]9a
same,discrimination between wild-type and knock-out ES2 slides,[8]; paraffin-embedded sections,failed to discriminate between wild-type and knock-out; also recorded: unable to bind specifically
Cc1c(COc2cc(OCc3cccc(C#N)c3)c(CN3C[C@@H]([18F])C[C@@H]3C(=O)O)cc2Cl)cccc1-c1ccc2c(c1)OCCO2 [[^18F]9a],lipophilicity (in words),[3],high lipophilicity
same,logP,[3],5.2 ± 0.6
same,logD,[3],6.5 ± 0.2
same,stability in formulation solution after 4 h,[4],97.3 ± 1.1%
same,stability in serum after 4 h,[5],88.7 ± 5.7%
same,"stability in human serum, minimal value",[5],82%
same,higher uptake in PD-L1+ H358 tumors,[7],40–55%
"KN035: PD-L1 nanobody, ca. 15 kDa",pKd,PD-L1 [9],8.5

# Reference: PMC10388299, “Design, Synthesis, and Biological Evaluation of 2-Hydroxy-4-phenylthiophene-3-carbonitrile as PD-L1 Antagonist and Its Comparison to Available Small Molecular PD-L1 Inhibitors” (Journal of Medicinal Chemistry, 2023)
